Experimental data taken from patent publication US11013722B2, “Therapeutic agent for dyslipidemia” (KOWA COMPANY, LTD., priority 2012, dated 2021).

Tests used:
[1] = tested on: High-Cholesterol Diet-Fed Rats; assay: Example 1: combined effect of compound A and ezetimibe, plasma HDL-C; assay type: in vivo, SD rats; conditions: for HDL-C Ave.: plasma, oral once a day, one week; for HDL-C Rate of Change: vs control
Protocol: The synergistic effect was determined by using Burgi's formula (if the relative level in the combined group is larger than the value of the product of the relative level of single agent A and the relative level of single agent B, the synergistic effect is positive).
(§1) Group 2: Compound A 0.1 mg/kg
Group 3: Ezetimibe 0.003 mg/kg
Group 4: Compound A 0.1 mg/kg and ezetimibe 0.003 mg/kg
(§2) The results were shown as the mean±standard deviation.

[2] = tested on: High-Cholesterol Diet-Fed Rats; assay: Example 2: combined effect of compound A and ezetimibe, plasma TC and lipoprotein cholesterol; assay type: in vivo, SD rats
Protocol: The synergistic effect was determined by using Burgi's formula (in a case where a level lower than that in the control group is indicated in a drug administration group, that is, when the evaluation of an agent to the TC, VLDL-C, or LDL-C is performed, if the relative level in the combined group is smaller than the value of the product of the relative level of single agent A and the relative level of single agent B, the synergistic effect exists. In a case where a level higher than that in the control group is indicated in a drug administration group, that is, when the evaluation of an agent to the HDL-C is performed, if the relative level in the combined group is larger than the value of the product of the relative level of single agent A and the relative level of single agent B, the synergistic effect exists).
as §1
Group 3: Ezetimibe 0.01 mg/kg […]
Group 5: Ezetimibe 0.1 mg/kg […]
as §2

`CC[C@@H](Oc1cccc(CN(CCCOc2ccc(OC)cc2)c2nc3ccccc3o2)c1)C(=O)O` [Compound A, (R)-2-[3-[[N-(benzoxazol-2-yl)-N-3-(4-methoxyphenoxy)propyl]aminomethyl]phenoxy]butyric acid] was tested, and the “Effect on HDL-C level” value ([1]; Compound A 0.1 mg/kg alone) was “apparent effects were not recognized”, the “HDL-C relative level to the control group” value ([1]; Compound A 0.1 mg/kg alone) was 1.010 and the “HDL-C Ave.” value ([1]; Compound A 0.1 mg/kg alone) was 24.3. The “HDL-C Rate of Change” value ([1]; Compound A 0.1 mg/kg alone) was 1.0%, the “HDL-C Relative Level (to Control)” value ([2]; Compound A 0.1 mg/kg alone) was 1.021 and the “LDL-C Relative Level (to Control)” value ([2]; Compound A 0.1 mg/kg alone) was 0.971. For the same molecule, the “TC Relative Level (to Control)” value ([2]; Compound A 0.1 mg/kg alone) was 0.956 and the “VLDL-C Relative Level (to Control)” value ([2]; Compound A 0.1 mg/kg alone) was 0.827.

`O=C1[C@H](CC[C@H](O)c2ccc(F)cc2)[C@@H](c2ccc(O)cc2)N1c1ccc(F)cc1` [Ezetimibe, (3R,4S)-1-(4-fluorophenyl)-3-{(3S)-3-(4-fluorophenyl)-3-hydroxypropyl}-4-(4-hydroxyphenyl)azetidin-2-one] was tested, and the “Effect on HDL-C level” value ([1]; Ezetimibe 0.003 mg/kg alone) was “apparent effects were not recognized”, the “HDL-C relative level to the control group” value ([1]; Ezetimibe 0.003 mg/kg alone) was 1.022 and the “HDL-C Ave.” value ([1]; Ezetimibe 0.003 mg/kg alone) was 24.6. The “HDL-C Rate of Change” value ([1]; Ezetimibe 0.003 mg/kg alone) was 2.2%, the “HDL-C Relative Level (to Control)” value ([2]; Ezetimibe 0.01 mg/kg alone) was 0.910 and the “LDL-C Relative Level (to Control)” value ([2]; Ezetimibe 0.01 mg/kg alone) was 0.955. For the same molecule, the “TC Relative Level (to Control)” value ([2]; Ezetimibe 0.01 mg/kg alone) was 0.898, the “VLDL-C Relative Level (to Control)” value ([2]; Ezetimibe 0.01 mg/kg alone) was 0.719 and the “HDL-C Relative Level (to Control)” value ([2]; Ezetimibe 0.1 mg/kg alone) was 1.100. The “LDL-C Relative Level (to Control)” value ([2]; Ezetimibe 0.1 mg/kg alone) was 0.720, the “TC Relative Level (to Control)” value ([2]; Ezetimibe 0.1 mg/kg alone) was 0.555 and the “VLDL-C Relative Level (to Control)” value ([2]; Ezetimibe 0.1 mg/kg alone) was 0.262.
